Row | Compound | melting point
1 | NS(=O)(=O)c1ccc(C2=C(c3ccc(F)cc3)CC3(CC3)C2)cc1 | 131 to 133 °C
2 | CCOC(=O)c1ccc(Cl)c(S(=O)(=O)Cl)c1 | 143 to 145 °C
3 | CC1NS(=O)(=O)c2sccc21 (stereo not given) | 79 to 81 °C
4 | CCOC(=O)C(NC=O)=C1CC2CCC(C1)N2C(=O)OCc1ccccc1 | 124 °C
5 | OC1(C#Cc2ccc(-c3ccccc3)cc2)CN2CCC1CC2 (stereo not given) | 217 to 218 °C
6 | O=C(Nc1nc(C(F)(F)F)co1)C1c2cc(F)ccc2Oc2ccc(F)cc21 | 259 °C
7 | COC(=O)CCC(=O)c1cc2cc(OC)c(OC)cc2o1 | 140 to 142 °C
8 | CN1CCC(=O)N(c2ccc(Cl)cc2Cl)C1=O | 122 to 125 °C
9 | C[Si](C)(C)CCOC1OC(CO)C(O)C(O)C1N=[N+]=[N-] (stereo not given) | 158 to 161 °C
10 | CSCCC(CS)NC(=O)OC(C)(C)C (stereo not given) | 37 °C
11 | OC(c1ccnc2cc(Cl)ccc12)C(F)(F)F (stereo not given) | 161 °C
12 | C[Si](C)(C)OC(Cn1ccnc1)(Cn1ccnc1)c1ccc(F)cc1F | 134 to 136 °C
13 | Cc1ccc(CC(=O)O)s1 | 54 °C
14 | O=S(=O)(NC1C2CCC(C2)C1CO)c1ccccc1 (stereo not given) | 118 to 120 °C
15 | CC(=O)N(C(C)=O)c1cc2c(cc1C)N(C(C)=O)c1ccc(N(C)C)cc1N2C(C)=O | 231 to 234 °C
16 | Cc1sc(C)c(Cc2nc3c(F)c(F)cc(F)c3s2)c1CC#N | 145 to 146 °C
17 | CCCc1cc(C(=O)O)n(C)n1 | 150 to 154 °C
18 | O=C(c1ccc[nH]1)C1CCCCC1 | 83 to 84 °C
19 | Clc1nc(NCc2cccc(I)c2)c2ncn(C3CCCO3)c2n1 (stereo not given) | 180 to 182 °C
20 | N#CSCC1CC(=O)N(c2ccc(F)cc2)C1=O (stereo not given) | 88 °C
21 | COc1cc(OC)nc(CCl)n1 | 40 to 42 °C
22 | N=C(N)c1ccc2cc(OC(=O)[C@H]3CC[C@H](CN)CC3)ccc2c1 | 147 °C

Row | Compound | melting point
23 | CC(C)[Si](OC[C@H]1C(C=O)=Cc2cc3c(cc2[C@@H]1O)OCO3)(C(C)C)C(C)C | 87 to 89 °C
24 | CC1CCN(c2ccc([N+](=O)[O-])cc2C(=O)c2ccc(Cl)cc2)CC1 | 136 °C
25 | Nc1ccc(SCCOC2OC(CO)C(OC3OC(CO)C(O)C(O)C3O)C(O)C2O)cc1 (stereo not given) | 104 to 106 °C
26 | COc1cc(C)c(C(=O)c2c(Cl)cnc(Cl)c2C(F)(F)F)c(OC)c1OC | 106 to 109 °C
27 | O=C(CCC(=O)Oc1cc(O)cc(O)c1)Oc1cc(O)cc(O)c1 | 213 to 217 °C
28 | C=CCCC(C#N)(C#N)Cc1ccc(C#N)cc1 | 109 °C
29 | CC1(C(=O)NNc2c(Cl)cc(C(F)(F)F)cc2Cl)CC1(Cl)Cl (stereo not given) | 174 to 175 °C
30 | O=C1CNc2ncc(I)cc2N1Cc1cc(F)ccc1C(F)(F)F | 244 to 245 °C
31 | O=C(CCCCCc1ccc(Cl)cc1)N1CCN(c2cnccn2)CC1 | 88 to 89 °C
32 | CC(O)c1ccc(NS(C)(=O)=O)c(Sc2ccc(Cl)cc2Cl)c1 (stereo not given) | 91 to 94 °C
33 | COC(=O)c1sc2ccc(NC=O)cc2c1N | 202 to 204 °C
34 | CC(C)C(=O)Oc1ccc2c(c1)OCN(CCO[N+](=O)[O-])C2=O | 70 to 71 °C
35 | O=C1C=C(Nc2c(Br)cccc2Br)CCN1 | 240 to 243 °C
36 | O=C1CNC(=O)N1c1cc(Cl)cc(Cl)c1 | 199 °C
37 | CSCCCCCC=C(NC(=O)C1CC1(C)C)C(=O)O (stereo not given) | 82 to 84 °C
38 | O=C(NO)c1ccc2c(c1)CCN(C(=O)C1CC1)C2 | 90 °C
39 | Cc1ccc2c(c1)C1c3cc4c(cc3OCC1NC2=O)OCO4 (stereo not given) | > 250 °C
40 | CC(=O)Oc1cc(OCC(O)c2ccc3c(c2)C(C)(C)CCC3(C)C)ccc1C(=O)O (stereo not given) | 119 to 120 °C
41 | CCOC(=O)/C(CCO)=C(\c1ccc(Cl)cc1)c1ccc(S(C)(=O)=O)cc1 | 128 °C
42 | NS(=O)(=O)Oc1ccc2cc(C3CCCCC3)sc2c1 | 128 °C
43 | CC(=O)OC1CCC2(C)C(=CCC3C2CCC2(C)C(C(C)=O)=CCC32)C1 (stereo not given) | 169 to 172 °C
44 | CC(CCC(=O)O)C1CCC2C3C(=O)CC4CC(OC=O)CCC4(C)C3CC(OC=O)C12C (stereo not given) | 208 to 211 °C

Second part, the molecule after the results:

Row | melting point | Compound
45 | 90 to 91 °C | CC(C)(C)C(Cc1ccccc1)C(=O)n1ccnc1 (stereo not given)
46 | 70 to 72 °C | CCOC(=O)c1ccc(COc2cccc3occc23)cc1
47 | 66 to 75 °C | CCOC(=O)c1cc2ccccc2nc1C(Cl)(Cl)Cl
48 | 105 to 106 °C | CCOC(=O)C(=NOCc1ccc(OCc2nc(-c3ccccc3)oc2C)cc1)c1ccc(Br)cc1
49 | 99 to 101 °C | CCOC(=O)COc1ccc(Cn2c(-c3ccc(Cl)cc3)c(C)c3cc(OCc4ccccc4)ccc32)cc1
50 | 111 to 112 °C | COc1ccc2c(c1)c(Br)cn2C(=O)OC(C)(C)C
51 | 249 to 251 °C | O=c1c2c(Cc3ccccc3)n[nH]c2c2cccnc2n1-c1cccc(OC(F)(F)F)c1
52 | 133 to 134 °C | ClCc1coc(-c2cc3ccccc3o2)n1
53 | 130 to 132 °C | Clc1ncc(-c2ccccc2)cn1
54 | 134 to 136 °C | CC(C)(C)c1cc(-c2nn(CCOC(=O)c3cccnc3)c3ncccc23)cc(C(C)(C)C)c1O
55 | 203 to 205 °C | Nc1ncnc2c1c(-c1ccc(Oc3ccccc3)cc1)nn2C1CCC(=O)CC1
56 | 218 to 220 °C | Cc1ccccc1CN1CCC(n2c(C)c(-c3ccc(Cl)cc3)[nH]c2=O)CC1
57 | 203 to 204 °C | COc1ccc(C(=O)Nc2nc(C)c(C(=O)NCc3ccccc3)s2)cc1
58 | 302 to 304 °C | O=C1Nc2cnc(Nc3ccc(N4CCOCC4)cc3)nc2S/C1=C/c1ccc([N+](=O)[O-])cc1
59 | 122 °C | C=CC(=O)c1ccc(OC(=O)c2ccc(C#N)cc2)cc1
60 | 107 to 108 °C | COC(=O)c1ccc(CN2CCC(=O)C(C(c3ccccc3)c3ccccc3)C2)cc1 (stereo not given)
61 | 140 to 144 °C | O=C(CC1(c2ccccc2)CCCC1)C(=O)Nc1ccc2c(c1)COC2=O
62 | 128 to 130 °C | COc1cc(COc2cc(N)c(Cl)cc2C(=O)CCCCN2CCCCC2)cc(OC)c1
63 | 187 to 189 °C | O=C(O)COc1ccc(C(=CC(=O)NCc2cccnc2)c2ccccc2)cc1

Row | melting point | Compound
64 | 249 to 250 °C | CC(O)c1ccc2nc(NC(=O)c3ccc(C(C)(C)C)cc3)cn2c1 (stereo not given)
65 | 273 to 274 °C | O=C(C1CCCc2c1c1ccccc1n2Cc1ccccc1)N1CCN(c2ccccc2)CC1 (stereo not given)
66 | 218 to 219 °C | CC(Oc1ccc2c(=O)c(-c3cccc(O)c3)coc2c1)C(=O)O (stereo not given)
67 | 175 to 177 °C | COc1cc(C2=CCN(S(=O)(=O)CC(=O)NO)CC2)ccc1-c1ccccc1
68 | > 350 °C | O=c1cc[nH]c2nc(-c3ccncc3)ncc12
69 | 167 to 168 °C | CCOC(=O)CCCCC1CC(n2c3ccccc3c3ccccc32)c2ccccc2N1C(=O)c1ccc(OC)cc1 (stereo not given)
70 | 162 to 188 °C | Cc1ccccc1C(=O)Nc1ccc(C(=O)N2Cc3cccn3Cc3sccc32)cc1
71 | 255 °C | CNS(=O)(=O)c1cccc(NC(=O)c2cnn3c(C(F)F)cc(-c4ccc(C(F)(F)F)cc4)nc23)c1
72 | 109 to 111 °C | COc1ccc(N2CCN(c3c(C)c4c(c(OC)c3C)OC(C)C4)CC2)cc1 (stereo not given)
73 | 95 to 120 °C | COc1ccc(OCC(O)CN2CCC(C3Oc4ccccc4Cn4cccc43)CC2)cc1 (stereo not given)
74 | 189 to 190 °C | Cc1oc(-c2ccccc2)nc1/C=C/c1ccc(COc2ccccc2CC(=O)O)cc1
75 | 73 to 75 °C | FC(F)(F)c1ccccc1-c1nnc(Nc2cccc(SCc3ccccc3-c3ccccc3)c2)s1
76 | 64 to 65 °C | CCOC(=O)C(Cc1ccc(C(F)(F)F)cc1)C(=O)c1ccncc1 (stereo not given)
77 | 255 to 257 °C | O=c1[nH]nc2ccc(-c3ccccc3)nn12
78 | 219 °C | CCCCc1[nH]c(Cc2ccccc2)nc(=O)c1Cc1ccc(-c2ccccc2C(=O)O)cc1
79 | 210 °C | O=C(OC[C@@H](O)[C@@H]1CC(c2ccc(-c3ccc(N4C[C@H](Cn5ccnn5)OC4=O)cc3F)cn2)=NO1)c1cccnc1
80 | 64 to 65 °C | OCCc1cc2c(cc1Cc1ccccc1)OCO2
81 | 205 to 207 °C | O=C(O)c1cc(OCc2ccccc2)c(C(=O)c2ccccc2)c([N+](=O)[O-])c1
82 | 144 to 145 °C | Nc1ccccc1NC(=O)CCCCCCNC(=O)c1cn2c3c(cccc13)CCC2

Row | melting point | Compound
83 | 264 to 265 °C | CCOC(=O)c1cnc2c3cc(OC)c(OC)cc3ccn2c1=O
84 | 131 to 133 °C | Cc1cc(N2CC=C(C(=O)OC(C)C)CC2)c2cccc(-c3ccc(Cl)cc3Cl)c2n1
85 | 97 to 99 °C | COc1ccc(N)c(-c2cc3ccccc3[nH]2)c1
86 | 152 °C | CSc1nc(-c2ccc(Cl)cc2)nc(-c2ccccn2)n1
87 | 220 to 221 °C | COc1ccc2[nH]cc(CCc3nc4ccccc4c(=O)n3-c3ccccc3)c2c1
88 | 140 to 141 °C | c1ccc(CCCC2CCN(Cc3nc4ccccc4[nH]3)CC2)cc1
89 | 218 to 219 °C | O=C(O)CCc1oc2cc(O)ccc2c(=O)c1C(=O)O
90 | 231 to 234 °C | Cc1cc2c(c3oc4ccccc4c(=O)c13)CC(C(=O)O)O2 (stereo not given)
91 | 265 to 275 °C | Nc1ccnc2c(NC(=O)c3c(Cl)cccc3Cl)cccc12
92 | < 70 °C | Cc1cc(OCCN2CCOCC2)nn1-c1ccc2c(O)cccc2c1
93 | 117 to 118 °C | C=CCOC(=O)c1ccc(-c2ccc3cc(OCCCCC(=O)OCC)c(C45CC6CC(CC(C6)C4)C5)cc3c2)cc1
94 | 195 to 197 °C | Cc1cc(-c2ccc(O)cc2)ccc1C=NO
95 | 183 to 185 °C | CCOc1nc2cccc(C(=O)O)c2n1Cc1ccc(-c2ccccc2-c2nnn[nH]2)cc1
96 | 106 to 109 °C | COC(=O)CCc1cc2cc(Cl)ccc2n1S(=O)(=O)c1cccc(OC)c1
97 | 113 to 115 °C | CC(C=O)c1ccc2cc(OCc3ccc4ccccc4n3)ccc2c1 (stereo not given)
98 | 154 to 156 °C | CCc1oc(C)cc(=O)c1C(=O)Nc1ccccc1
99 | 150 to 151 °C | CCCCc1ccc(CCCCSCc2cccc(/C=C/c3cccc(NC(=O)CC(CC)(CC)C(=O)O)c3)n2)cc1
100 | 251 °C | CC(C)(CO)NS(=O)(=O)c1cccc(NC(=O)c2cnn3c(C(F)(F)F)cc(-c4ccc(C(F)(F)F)c(OCC(F)(F)F)c4)nc23)c1

— a melting point compilation (Tetko et al.; mined from patent text by program, amines drawn as free bases though some values may be those of a salt)
